Data on eight molecules can be found in the supplement of paper PMC11061612.

Holding throughout (test): combination Emax (second highest fraction inhibited in the dose matrix, 72 h); higher = more inhibition; extreme values may be limits of the assay
Experiment [1] deals with SK-UT-1 (Other Solid Carcinomas). Summed up:
(§1)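 Bliss excess equals the observed combination effect minus the expected value EA + EB − EA·EB, where EA and EB are the effects of each agent alone. Combination Emax is the second-highest inhibition within the matrix. Inhibition was scaled from CellTiter-Glo 2.0 luminescence, with 0 set by vehicle wells and 1 by blank wells, after 72 hours of two-drug dosing of cells plated in 1536-well plates.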

Experiment [2] concerns MES-SA (Other Solid Carcinomas). In outline:
as §1

The subject of experiment [3] is RCC10RGB (Kidney Carcinoma). Summed up:
as §1

Experiment [4] relates to JHH-6 (Hepatocellular Carcinoma). In outline: as §1
For experiment [5], the system named is 647-V (Bladder Carcinoma). Summed up:
as §1

The subject of experiment [6] is DOK (Oral Cavity Carcinoma). In outline:
as §1

The subject of experiment [7] is SKN-3 (Head and Neck Carcinoma). In outline: as §1
The test system of experiment [8] is SLVL (B-Cell Non-Hodgkin's Lymphoma). In outline:
as §1

For experiment [9], the system named is GDM-1 (Acute Myeloid Leukemia). In outline: as §1
The test system of experiment [10] is SK-LMS-1 (Other Solid Carcinomas). In outline: as §1
For experiment [11], the system named is NOMO-1 (Acute Myeloid Leukemia). In outline: as §1
Experiment [12] deals with MEG-01 (Chronic Myelogenous Leukemia). Summed up: as §1

For `CN(C)CCCOc1ccc(-c2ccc3ncc4c(c3c2)n(C2CCOCC2)c(=O)n4C)cn1` [AZD0156] + C=CCn1c(=O)c2cnc(Nc3ccc(N4CCN(C)CC4)cc3)nc2n1-c1cccc(C(C)(C)O)n1 [AZD1775] (first compound max 1 µM, partner max 1 µM), the “combination Emax” value in experiment [1] turned out to be 0.635; in experiment [2] it was 0.768; in experiment [3], 0.464; in experiment [4] it was 0.148; in [5], 0.446; in experiment [6], 0.375. The “combination Emax” value is 0.139 in [7]; 0.904 in [8]; 0.823 in experiment [9]; 0.439 in experiment [10]; 0.96 in experiment [11]; 0.883 in experiment [12].
For the molecule `CN(C)CCCOc1ccc(-c2ccc3ncc4c(c3c2)n(C2CCOCC2)c(=O)n4C)cn1` [AZD0156] + CCN(CCO)CCCOc1ccc2c(Nc3cc(CC(=O)Nc4cccc(F)c4)[nH]n3)ncnc2c1 [AZD2811] (first compound max 1 µM, 7x7, partner max 1 µM), the “combination Emax” value in [1] turned out to be 0.264; in [2] it was 0.711; in [3], 0.143; in experiment [4] it was 0.241; in [5] it was 0.167; in [6], 0.334. Further, the “combination Emax” value in [7] worked out at 0.0518; in experiment [8], 0.605; in experiment [9] it was 0.81; in [10], 0.278; in [11], 0.501; in experiment [12], 0.329.
Consider `CN(C)CCCOc1ccc(-c2ccc3ncc4c(c3c2)n(C2CCOCC2)c(=O)n4C)cn1` [AZD0156] + C[C@@H]1COCCN1C2=NC(=NC(=C2)C3(CC3)[S@](=N)(=O)C)C4=C5C=CNC5=NC=C4 [AZD6738] (first compound max 1 µM, 7x7, partner max 10 µM), for which the “combination Emax” value in experiment [1] came to 0.806; in experiment [2], 0.807; in experiment [3], 0.403; in experiment [4] it was 0.337; in [5] it was 0.491; in experiment [6], 0.264. Also, the “combination Emax” value in experiment [7] was found to be 0.414; in experiment [8], 0.84; in [9], 0.52; in [10], 0.525; in experiment [11], 0.94; in experiment [12], 0.912.
For the molecule `C=CCn1c(=O)c2cnc(Nc3ccc(N4CCN(C)CC4)cc3)nc2n1-c1cccc(C(C)(C)O)n1` [AZD1775] + C[C@@H]1COCCN1C2=NC(=NC(=C2)C3(CC3)[S@](=N)(=O)C)C4=C5C=CNC5=NC=C4 [AZD6738] (first compound max 1 µM, partner max 10 µM), the “combination Emax” value in experiment [1] amounted to 0.906; in [2] it was 0.852; in experiment [3] it was 0.538; in experiment [4], 0.553; in experiment [5], 0.769; in [6] it was 0.545. Besides, the “combination Emax” value in experiment [7] amounted to 0.648; in experiment [8], 0.917; in experiment [9] it was 0.861; in [10], 0.704; in [11], 0.978; in experiment [12] it was 0.935.
For the molecule `C=CCn1c(=O)c2cnc(Nc3ccc(N4CCN(C)CC4)cc3)nc2n1-c1cccc(C(C)(C)O)n1` [AZD1775] + O=C(c1cc(Cc2n[nH]c(=O)c3ccccc23)ccc1F)N1CCN(C(=O)C2CC2)CC1 [Olaparib] (first compound max 1 µM, partner max 10 µM), the “combination Emax” value in experiment [1] came out at 0.625; in experiment [2], 0.696; in experiment [3], 0.52; in experiment [4], 0.223; in [5] it was 0.654; in [6] it was 0.457. The “combination Emax” value was determined as 0.171 in [7]; 0.915 in [8]; 0.827 in experiment [9]; 0.563 in experiment [10]; 0.917 in [11]; 0.845 in experiment [12].
Turning to `CCN(CCO)CCCOc1ccc2c(Nc3cc(CC(=O)Nc4cccc(F)c4)[nH]n3)ncnc2c1` [AZD2811] + C=CCn1c(=O)c2cnc(Nc3ccc(N4CCN(C)CC4)cc3)nc2n1-c1cccc(C(C)(C)O)n1 [AZD1775] (first compound max 1 µM, partner max 1 µM), the “combination Emax” value was determined as 0.765 in experiment [1]; 0.767 in experiment [2]; 0.518 in [3]; 0.223 in [4]; 0.491 in experiment [5]; 0.463 in [6]. Moreover, the “combination Emax” value in [7] stood at 0.148; in experiment [8], 0.889; in experiment [9], 0.857; in [10] it was 0.436; in experiment [11] it was 0.932; in [12], 0.863.
For `CCN(CCO)CCCOc1ccc2c(Nc3cc(CC(=O)Nc4cccc(F)c4)[nH]n3)ncnc2c1` [AZD2811] + C[C@@H]1COCCN1C2=NC(=NC(=C2)C3(CC3)[S@](=N)(=O)C)C4=C5C=CNC5=NC=C4 [AZD6738] (first compound max 1 µM, 7x7, partner max 10 µM), the “combination Emax” value in [1] turned out to be 0.816; in experiment [2], 0.654; in [3] it was 0.384; in experiment [4], 0.266; in experiment [5], 0.524; in experiment [6] it was 0.44. Also, the “combination Emax” value in experiment [7] came out at 0.222; in experiment [8], 0.784; in [9], 0.823; in experiment [10], 0.551; in experiment [11] it was 0.922; in experiment [12], 0.912.
In the case of `CCN(CCO)CCCOc1ccc2c(Nc3cc(CC(=O)Nc4cccc(F)c4)[nH]n3)ncnc2c1` [AZD2811] + O=C(c1cc(Cc2n[nH]c(=O)c3ccccc23)ccc1F)N1CCN(C(=O)C2CC2)CC1 [Olaparib] (first compound max 1 µM, 7x7, partner max 10 µM), the “combination Emax” value was determined as 0.289 in experiment [1]; 0.519 in experiment [2]; 0.211 in experiment [3]; 0.241 in experiment [4]; 0.275 in experiment [5]; 0.375 in experiment [6]. In addition, the “combination Emax” value in experiment [7] amounted to 0.0796; in experiment [8] it was 0.723; in experiment [9], 0.818; in [10] it was 0.367; in [11] it was 0.396; in [12] it was 0.564.
